The values below come from paper PMC10058583, “Development of Novel Fluorinated Polyphenols as Selective Inhibitors of DYRK1A/B Kinase for Treatment of Neuroinflammatory Diseases including Parkinson’s Disease” (Pharmaceuticals, 2023).

Each structure is given as a SMILES string. Like-named read-outs stand apart in the source and are kept apart here.

The target in data set [1] is T1, 6xHis-tagged rat-truncated DYRK1A (residues 1-497) (Rattus norvegicus, UniProt Q63470).
T1 construct: 6xHis-tagged rat-truncated DYRK1A (residues 1-497); 6xHis; made in house
Kind of data set: ELISA-based non-radioactive kinase assay, DYRK1A. Type of data set: biochemical.

Data set [2] deals with T2, human DYRK2 isoform 1 (6xHis-tagged) (Homo sapiens, UniProt Q92630).
T2 sequence (Q92630 74-601 limits assumed): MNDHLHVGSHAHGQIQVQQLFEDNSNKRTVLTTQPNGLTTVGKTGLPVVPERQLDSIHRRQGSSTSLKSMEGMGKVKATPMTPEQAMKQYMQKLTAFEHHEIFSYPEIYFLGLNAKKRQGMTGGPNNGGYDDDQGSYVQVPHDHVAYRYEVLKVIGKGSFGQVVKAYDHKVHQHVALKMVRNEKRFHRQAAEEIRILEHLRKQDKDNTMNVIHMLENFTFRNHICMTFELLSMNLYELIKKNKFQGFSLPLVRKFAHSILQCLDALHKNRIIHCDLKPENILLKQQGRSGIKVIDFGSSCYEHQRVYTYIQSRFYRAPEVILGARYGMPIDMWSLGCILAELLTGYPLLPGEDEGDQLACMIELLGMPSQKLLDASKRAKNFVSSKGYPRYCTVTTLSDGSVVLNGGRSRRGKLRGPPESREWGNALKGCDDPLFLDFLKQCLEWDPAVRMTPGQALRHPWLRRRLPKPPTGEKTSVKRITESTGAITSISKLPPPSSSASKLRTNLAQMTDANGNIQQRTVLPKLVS
The data set is described as follows: ELISA-based non-radioactive kinase assay, DYRK2. Type of data set: biochemical. The method, then: (§1) DYRK1B was prepared from human DYRK1B isoform p65 as glutathione S-transferase fusion protein, and DYRK2 was prepared from human DYRK2 isoform 1 as 6xHis-tagged protein, as previously described.
(§2) For DYRK2, the reactions were performed exactly as described for DYRK1A. For DYRK1B, the assays were similarly conducted but with 30 ng GST-DYRK1B and a kinase reaction time of 60 min.

In the next data set the test system is DYRK1A. The following applies: cited from earlier work.
Another data set relates to DYRK1B. To be noted: read-out: published IC50 DYRK1B; cited from earlier work.
The test system of the next data set is DYRK2. The following applies: read-out: published IC50 DYRK2; cited from earlier work.
Data set [3] addresses T3, human DYRK1B isoform p65 (GST fusion) (Homo sapiens, UniProt Q9Y463).
T3 construct: made in house
Kind of data set: ELISA-based non-radioactive kinase assay, DYRK1B. The data set is classed as biochemical. To be noted: 30 ng GST-DYRK1B, 60 min reaction. The method, then:
as §1, §2
(In general: ELISA stands for enzyme-linked immunosorbent assay.)

Data set [4] is described as follows: Pharmacokinetic studies in C57BL/6 mice (plasma and tissues). The data set is classed as in vivo, mouse. To be noted: PO (100 mg/kg). The method, then: To overcome the generally poor PK profile of catechins, we developed a proprietary formulation that allows for the delivery of these drugs in high concentrations for oral (PO) or intranasal (IN) use. Our liquid formulation is based on the solubilizer and penetration enhancer (2-hydroxypropyl)-β-cyclodextrin (HP-β-CD), PEG-400, and water. This vehicle allows us to achieve high drug concentration in dosing solution (up to 20% w/w) when needed. PK studies were conducted for 1c in adult male and female C57BL/6 mice (n = 3/sex/time point) using (1) a single IV dose (5 mg/kg), (2) an IN dose (60 mg/kg, 5 µL of a clear solution/nostril/twice), and (3) a single PO dose (100 mg/kg). We analyzed the concentration of the drug in several tissues, including the brain, lungs, liver, and plasma. We observed that this class of molecules is stable in circulation; however, when the tissues are harvested for bioanalytical work, the drug undergoes rapid degradation, probably because of the direct contact with oxygen and metals, which catalyzes its rapid degradation/oxidation. We were able to stabilize the drug in blood by the immediate addition of ascorbic acid and TCEP [29]; however, the same was not possible with solid organs such as the brain and liver, which need to be collected through surgery and homogenized before any stabilizing agent can be added. Therefore, tissue PK data tend to vary.
C57BL/6J mice were given a single dose of drug via the IN or PO route. […] For PO delivery, we replaced water with saline. The volume for IN delivery was 5 µL/nostril, and the volume used for oral delivery was 10 mL/kg. After sacrifice, blood (500 µL) was collected into K2EDTA microtubes and kept on ice all times (must be centrifuged within 30 min of collection). Blood was centrifuged in EDTA vacuum at 4 °C at 15,000× g for 4 min; ~250 µL of plasma was collected into polyethylene tubes containing 50 µL of AA/TCEP stabilizing solution (20 mM ascorbic acid and 13 mM TCEP in 50 mM K2HPO4 buffer; the pH of the solution was adjusted to 6.5 using 2 M NaOH). Then, 200 µL of the collected plasma was mixed with (1) 24 µL of a solution of 10% ascorbic acid and 0.1% EDTA in 40 mM NaH2PO4; (2) 40 µL of 50 mM sodium phosphate (pH 7.4); (3) 500 units of β-D-glucuronidase type X-A from Escherichia coli (Sigma Chemical Co, St Louis, MO, USA), and (4) 4 units of sulfatase type VIII from abalone entrails (Sigma Chemical Co). The mixture was incubated at 37 °C for 45 min. Plasma was then extracted by the addition of 0.5 mL ACN; the mixture was vortex-mixed for 2 min, then snap-frozen with isopropanol/carbon dioxide dry ice, and the upper layer of ACN was removed. The process was repeated another 2 times. The ACN fractions were pooled into a polyethylene tube kept on ice. The combined fractions were evaporated under a gentle stream of nitrogen at ambient temperature. The residue obtained after evaporation was reconstituted in 200 µL of 75 mM citric acid//25 mM ammonium acetate: ACN (75:25 by vol), and vortexed vigorously for 5 min, and 20 µL of the resulting solution was injected into the LC-MS/MS column.
Drug analysis in tissues: About ~0.4 g of the tissue was homogenized with 1 mL of ice-cold 0.4 M sodium phosphate buffer containing 6 mg of ascorbic acid and 0.5 mg of Na2EDTA (final pH of 6.5). After centrifugation at 4 °C at 15,000× g for 4 min, the supernatant was collected into polyethylene tubes containing 50 µL of the AA/TCEP stabilizing solution. Then 1 U of sulfatase and 250 U of β-glucuronidase were added to the abovementioned homogenized mixture. Samples were incubated at 37 °C for 45 min, then extracted, dried, and resuspended in a manner similar to that for plasma. Samples were then analyzed by LC-MS/MS.

Data set [5] has as its system LPS-induced inflammation in C57BL/6J mice. Kind of data set: LPS-induced inflammation model. The following applies: positive control 1 mg/kg PO, LPS i.p. 750 µg/kg. Type of data set: in vivo, mouse. The method, then: Neuroinflammation is an important factor contributing to cognitive impairment and neurodegenerative diseases such as PD, and the administration of LPS is frequently used to study neuroinflammation-associated diseases in mice.
Each group consisted of six male mice. […] Animals were pretreated for 3 days with the drug of choice; then, treatment with LPS commenced on day 0, and on the 5th day of LPS treatment, the drug was administered half an hour before LPS injection. One hour after LPS treatment, the animals were anesthetized with a mixture of ketamine, xylazine 2%, atropine, and saline (4:2.5:1:2.5). The body temperature of mice under anesthesia was maintained by applying a heating blanket and monitored using a rectal thermometer. After anesthesia, the animals underwent cardiac perfusion with ice-cold saline for three minutes (3 mL/minute via peristaltic pump) via the left ventricle. The right atrium was cut as an outflow route. The right hemisphere was post-fixed overnight in 4% PFA in PBS at 4 °C and stored in 1xPBS containing 0.1% (v/w) sodium azide at 4 °C. The left hemisphere, hippocampus, cortex, midbrain, and brainstem were microdissected, immersed in liquid nitrogen in separate tubes (with one-fifth of the rest of the brain tissue), and stored in microfuge tubes at −80°. TNFα (in both plasma and the hippocampus) was analyzed with ELISA, and the p-tau (AT-8 antibody) level was recorded in the hippocampus and cortex with WB.

Where [6] appears, read: both sexes, C57BL/6, mouse, plasma.

T3 sequence (Q9Y463 1-589 isoform Q9Y463-2): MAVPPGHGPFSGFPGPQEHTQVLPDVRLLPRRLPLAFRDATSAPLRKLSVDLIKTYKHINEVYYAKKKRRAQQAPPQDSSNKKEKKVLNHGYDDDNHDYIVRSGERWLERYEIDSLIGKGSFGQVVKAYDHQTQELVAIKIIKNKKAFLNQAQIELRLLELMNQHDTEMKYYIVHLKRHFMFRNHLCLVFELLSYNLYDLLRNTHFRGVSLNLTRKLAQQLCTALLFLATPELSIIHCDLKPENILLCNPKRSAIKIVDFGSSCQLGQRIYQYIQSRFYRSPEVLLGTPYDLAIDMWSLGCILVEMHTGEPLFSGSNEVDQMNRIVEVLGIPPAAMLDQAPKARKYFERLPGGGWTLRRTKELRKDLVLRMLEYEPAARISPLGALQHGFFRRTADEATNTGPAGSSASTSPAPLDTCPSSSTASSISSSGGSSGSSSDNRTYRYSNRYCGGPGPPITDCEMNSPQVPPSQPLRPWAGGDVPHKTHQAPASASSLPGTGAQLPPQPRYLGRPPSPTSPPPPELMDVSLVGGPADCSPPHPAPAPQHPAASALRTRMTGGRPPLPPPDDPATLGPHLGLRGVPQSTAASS

In general, IC50 refers to the concentration that gives 50% inhibition. Regarding `COc1cc(N2CCN(C)CC2)ccc1Nc1nccc(-c2cn(C)c3cnccc23)n1` [AZ-191], the IC50 in data set [1] was 98 nM; in data set [2], 1720 nM; in the data set with DYRK1A (read-out: published IC50 DYRK1A), 88 nM; in the data set with DYRK1B it was 17 nM; in the data set on DYRK2 it was 1890 nM.

Consider `O=C(O[C@@H]1Cc2c(O)cc(O)cc2O[C@H]1c1cc(O)c(O)c(O)c1)c1cc(O)c(O)c(O)c1F` [Compound 1a], for which the values for the IC50 in data set [1] (read-out: DYRK1A IC50), in data set [3] and in data set [2] were 35 nM, 42 nM and 258 nM, respectively.

As usually defined, the AUC(0-inf) is the area under the concentration-time curve extrapolated to infinity. The term AUC(0-t) denotes the area under the concentration-time curve up to a stated or last time point. Low readings indicate less exposure, high ones more exposure. The Cmax is the maximum level reached in the sampled fluid or tissue. A word on the Tmax: it is the time from dosing to the highest level. One may read the half-life as the time needed for the level to fall by half in the phase considered. Higher therefore signals slow decline. As for `O=C(O[C@@H]1Cc2c(O)cc(O)cc2O[C@H]1c1cc(O)c(O)c(O)c1)c1c(F)c(O)c(O)c(O)c1F` [Compound 1b], the “improvement in anti-DYRK1A activity compared to EGCG” value in data set [1] is reported as “eightfold”. The IC50 in data set [1] (read-out: DYRK1A IC50) came to 28 nM. For the same compound, the IC50 in data set [3] was found to be 45 nM. The IC50 in data set [2] came to 181 nM. The “bioavailability (in words)” value in data set [4] was “much lower than that of 1c”. In data set [4] (plasma), the Tlast is 24 h. In data set [4] (setting [6]), the AUC(0-inf) was 472 ng·h/mL, the AUC(0-t) was 379 ng·h/mL, the Cmax was 131 ng/mL and the Tmax turned out to be 0.5 h. The compound also gave a half-life in data set [4] (setting [6]) of 12.7 h.

On to `COc1c(O)c(O)cc(C(=O)O[C@@H]2Cc3c(O)cc(O)cc3O[C@H]2c2cc(O)c(O)c(O)c2)c1F` [Compound 1d], for which the IC50 in data set [1] (read-out: DYRK1A IC50) worked out at 152 nM.

For the compound `COc1c(O)c(O)c(F)c(C(=O)O[C@@H]2Cc3c(O)cc(O)cc3O[C@H]2c2cc(O)c(O)c(O)c2)c1F` [Compound 1e], the IC50 in data set [1] (read-out: DYRK1A IC50) stood at 125 nM.

`O=C(O[C@@H]1Cc2c(O)cc(O)cc2O[C@H]1c1cc(O)c(O)c(O)c1)c1cc(O)c(O)c(OC(F)F)c1` [Compound 1f]: the IC50 in data set [1] (read-out: DYRK1A IC50) was determined as 252 nM.

Consider `O=C(O[C@@H]1Cc2c(O)cc(O)cc2O[C@H]1c1cc(O)c(O)c(O)c1)c1cc(OC(F)F)c(O)c(O)c1F` [Compound 1g], for which the IC50 in data set [1] (read-out: DYRK1A IC50) came to 136 nM.

`CC(C)Oc1c(O)c(O)c(F)c(C(=O)O[C@@H]2Cc3c(O)cc(O)cc3O[C@H]2c2cc(O)c(O)c(O)c2)c1F` [Compound 1h]: the IC50 in data set [1] (read-out: DYRK1A IC50) came out at 356 nM.

For the compound `C[C@@H]1C[C@H]2[C@@H]3CCC4=CC(=O)C=C[C@]4(C)[C@@]3(F)[C@@H](O)C[C@]2(C)[C@@]1(O)C(=O)CO` [Dexamethasone, reference compound], the efficacy in plasma entry in data set [5] is listed as “high efficacy”.

A word on the bioavailability: it is dose-corrected exposure relative to a reference, in per cent. As to `O=C(O[C@@H]1Cc2c(O)cc(O)cc2O[C@@H]1c1cc(O)c(O)c(O)c1)c1cc(O)c(O)c(O)c1` [EGCG, epigallocatechin gallate, reference compound], the IC50 in data set [2] was 1490 nM. In addition, in data set [4] (setting [6]), the AUC(0-inf) was 395 ng·h/mL, the AUC(0-t) amounted to 360 ng·h/mL, the Cmax is 55 ng/mL and the half-life was 5.02 h. Further, in data set [4] (both sexes, C57BL/6, mouse, plasma, po, 100 mg/kg, plasma, read-out: F (absolute bioavailability)), the bioavailability came out at 2%. Moreover, the IC50 in the data set on DYRK1A (allosteric inhibitor, read-out: DYRK1A in vitro IC50) is 300 to 400 nM.

For `O=C(O[C@@H]1Cc2c(O)cc(O)cc2O[C@H]1c1cc(O)c(O)c(O)c1)c1cc(O)c(O)c(O)c1` [GCG, reference compound], in data set [2], the IC50 was 574 nM.

As for `COc1cc(C(=O)OC2Cc3c(O)cc(O)cc3OC2c2cc(O)c(O)c(O)c2)cc(O)c1O` (stereo not shown) [GCG-3”OMe, reference compound], the IC50 in data set [1] (read-out: DYRK1A IC50) is 206 nM.
